Measurements from ChEMBL document CHEMBL1201862, “PubChem BioAssay data set” (2004).
The source made the active and inactive calls.

What was measured:
[1] = target: T1, Beta-adrenergic receptor kinase 1 (Homo sapiens, UniProt P25098); experiment: blockers of aptamer binding to GRK2 – biochemical, flow cytometry beads, FAM-aptamer, powder set 1, dose response (AID 588720)
T1 sequence (P25098 whole entry): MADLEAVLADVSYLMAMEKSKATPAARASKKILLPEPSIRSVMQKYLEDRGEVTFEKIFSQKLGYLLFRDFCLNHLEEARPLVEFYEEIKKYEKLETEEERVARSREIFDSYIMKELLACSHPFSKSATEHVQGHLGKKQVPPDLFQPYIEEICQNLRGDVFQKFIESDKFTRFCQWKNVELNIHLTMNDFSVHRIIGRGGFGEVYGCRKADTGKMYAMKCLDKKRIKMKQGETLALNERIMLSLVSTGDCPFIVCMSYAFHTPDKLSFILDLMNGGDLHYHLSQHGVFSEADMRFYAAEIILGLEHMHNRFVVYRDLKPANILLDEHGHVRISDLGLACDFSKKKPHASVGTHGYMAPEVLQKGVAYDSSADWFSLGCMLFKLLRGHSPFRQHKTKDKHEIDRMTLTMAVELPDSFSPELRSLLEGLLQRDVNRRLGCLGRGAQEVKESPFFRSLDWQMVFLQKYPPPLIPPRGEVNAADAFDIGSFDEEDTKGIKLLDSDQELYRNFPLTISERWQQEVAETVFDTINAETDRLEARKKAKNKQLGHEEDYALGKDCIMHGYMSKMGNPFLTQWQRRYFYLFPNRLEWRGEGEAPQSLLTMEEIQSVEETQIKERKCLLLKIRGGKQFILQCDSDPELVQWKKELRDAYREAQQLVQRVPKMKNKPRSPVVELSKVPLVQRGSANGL

[2] = target: Sphingosine 1-phosphate receptor 2 (Homo sapiens, UniProt O95136); experiment: Dose Response Cell Based Assay for Antagonists of the S1P2 Receptor. [Related pubchem assays: 856, 736 ]; format: functional
Sequence of Sphingosine 1-phosphate receptor 2 (O95136 whole entry): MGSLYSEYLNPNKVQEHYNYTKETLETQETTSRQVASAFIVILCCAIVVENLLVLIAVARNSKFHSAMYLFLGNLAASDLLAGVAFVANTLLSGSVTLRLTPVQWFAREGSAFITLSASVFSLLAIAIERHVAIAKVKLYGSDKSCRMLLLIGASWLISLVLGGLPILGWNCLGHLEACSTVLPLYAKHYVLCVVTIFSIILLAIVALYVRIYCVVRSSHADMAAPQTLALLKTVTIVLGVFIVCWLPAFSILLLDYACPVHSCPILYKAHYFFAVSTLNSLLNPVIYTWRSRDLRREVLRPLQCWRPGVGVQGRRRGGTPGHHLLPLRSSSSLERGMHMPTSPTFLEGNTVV

CHO-K1 = experiment: (§1) Counterscreen for antagonists of the orexin 1 receptor (OX1R; HCRTR1): Homogeneous time resolved fluorescence (HTRF)-based cell-based dose response assay to identify antagonists of the parental CHO-K1 cell line. [Related pubchem assays (depositor defined):AID434989, AID435008, AID463079, AID485270, AID492963, AID492964, AID492965, AID493232, AID504699, AID504701]; format: functional; conditions: Cricetulus griseus
Jurkat = experiment: blockers of NF-kB activation in T cells – Jurkat, luciferase reporter, luminescence, B- and T-cell, dose response (AID 489004); format: functional, cell-based; conditions: Homo sapiens;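 also: NF-kB luciferase reporter Jurkat cells stimulated with PMA plus ionomycin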
[3] = as §1, with “Fluorescence-based” for “Homogeneous time resolved fluorescence (HTRF)-based”, “cell-based high throughput” for “cell-based”, “CHO” for “CHO-K1”; format: functional
[4] = HEK-293T viability loss, compound-treated – cell-based, uHTS hits, cytotoxicity control for B/T-cell NF-kB inhibitor project, dose response (AID 489019); format: functional;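 also: IC50 reflects cytotoxicity as loss of cell viability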
[5] = target: T2, Orexin/Hypocretin receptor type 1 (Homo sapiens, UniProt O43613); experiment: Homogeneous Time Resolved Fluorescence (HTRF)-based cell-based high throughput dose response assay for antagonists of the orexin 1 receptor (OX1R; HCRTR1). [Related pubchem assays (depositor defined):AID434989, AID435008, AID463079, AID485270, AID492963, AID492964, AID492965, AID493232, AID504717, AID504718]; format: functional
T2 sequence (O43613 whole entry): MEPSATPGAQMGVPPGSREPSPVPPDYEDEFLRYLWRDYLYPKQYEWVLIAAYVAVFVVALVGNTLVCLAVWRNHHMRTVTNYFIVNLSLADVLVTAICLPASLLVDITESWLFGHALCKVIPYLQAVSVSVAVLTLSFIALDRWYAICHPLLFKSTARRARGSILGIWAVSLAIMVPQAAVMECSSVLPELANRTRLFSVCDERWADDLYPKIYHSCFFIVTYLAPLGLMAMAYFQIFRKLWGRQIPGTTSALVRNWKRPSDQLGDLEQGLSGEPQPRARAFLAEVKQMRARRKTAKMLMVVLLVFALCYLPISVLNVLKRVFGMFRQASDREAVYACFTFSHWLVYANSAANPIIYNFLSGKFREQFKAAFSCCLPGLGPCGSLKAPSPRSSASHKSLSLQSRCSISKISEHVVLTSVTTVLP

[6] = target: T2, Orexin/Hypocretin receptor type 1; experiment: Fluorescence-based cell-based high throughput dose response assay for antagonists of the orexin 1 receptor (OX1R; HCRTR1). [Related pubchem assays (depositor defined):AID434989, AID435008, AID463079, AID485270, AID492963, AID492964, AID492965, AID493232, AID504717, AID504718]; format: functional
[7] = target: T3, Microphthalmia-associated transcription factor (Homo sapiens, UniProt O75030); experiment: reducers of TRPM1 reporter luminescence, concentration series – cell-based, SK-MEL-5, cherry-picked, set 3, MITF inhibitor project, dose response (AID 493073); format: functional;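 also: SK-MEL-5 melanoma cells with luciferase driven by the MITF target TRPM1 promoter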
T3 sequence (O75030 whole entry): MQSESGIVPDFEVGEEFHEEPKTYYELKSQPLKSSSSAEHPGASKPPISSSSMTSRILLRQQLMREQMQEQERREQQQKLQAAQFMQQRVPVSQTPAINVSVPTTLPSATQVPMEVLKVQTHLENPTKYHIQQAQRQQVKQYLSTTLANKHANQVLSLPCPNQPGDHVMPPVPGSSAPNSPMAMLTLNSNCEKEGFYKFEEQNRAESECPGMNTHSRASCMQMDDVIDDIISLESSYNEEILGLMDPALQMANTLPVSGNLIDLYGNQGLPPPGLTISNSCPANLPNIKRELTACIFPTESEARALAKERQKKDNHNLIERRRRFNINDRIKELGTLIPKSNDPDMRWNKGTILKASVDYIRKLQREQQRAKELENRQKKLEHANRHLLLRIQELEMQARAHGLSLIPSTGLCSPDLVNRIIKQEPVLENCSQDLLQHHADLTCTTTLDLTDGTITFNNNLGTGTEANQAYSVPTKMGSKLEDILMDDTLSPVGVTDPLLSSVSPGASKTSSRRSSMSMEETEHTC

INS1 = experiment: INS-1E survival protection against cytokine death – cell-based, luminescence, retest, dose response (AID 449756); format: functional; conditions: Rattus norvegicus;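 also: cell death triggered by IL-1 beta plus TNF-alpha plus IFN-gamma mixture; protective hits raise ATP signal compared with cytokine alone wells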
[8] = reduction of Shn3 3'UTR-driven luciferase in osteoblasts – cell-based, Clone20 osteoblasts, firefly luciferase, cherry-picked, dose response (AID 624132); format: functional;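 also: firefly luciferase luminescence from reporter carrying the Shn3 3'UTR in osteoblasts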
[9] = loss of viability in HepG2 cells – cell-based, CellTiter-Glo, cherry-picked, cytotoxicity control for Shn3 inhibitor project, dose response (AID 624134); format: functional
Orexin receptor type 2 [10] = target: T4, Orexin receptor type 2 (Homo sapiens, UniProt O43614); experiment: Counterscreen assay for antagonists of the orexin 1 receptor (OX1R; HCRTR1): Fluorescence-based cell-based dose response assay for antagonists of the orexin 2 receptor (OX2R; HCRTR2), run by assay provider.; format: functional
T4 sequence (O43614 whole entry): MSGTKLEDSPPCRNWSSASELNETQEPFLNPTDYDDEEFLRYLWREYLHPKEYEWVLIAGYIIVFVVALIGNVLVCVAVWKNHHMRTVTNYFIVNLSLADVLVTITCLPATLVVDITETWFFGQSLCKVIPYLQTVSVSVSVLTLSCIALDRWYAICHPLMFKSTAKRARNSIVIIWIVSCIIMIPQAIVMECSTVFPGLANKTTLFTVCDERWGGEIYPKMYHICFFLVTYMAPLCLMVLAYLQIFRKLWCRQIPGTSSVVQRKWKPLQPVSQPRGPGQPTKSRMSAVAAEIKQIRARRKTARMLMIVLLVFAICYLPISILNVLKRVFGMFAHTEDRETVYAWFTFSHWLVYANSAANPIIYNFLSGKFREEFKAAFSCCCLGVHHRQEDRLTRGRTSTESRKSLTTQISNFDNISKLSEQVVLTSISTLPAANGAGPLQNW

[11] = non-specific 3'UTR reporter inhibition in Clone20-Shn3RL – cell-based, Renilla luciferase, cherry-picked, counter-screen for Shn3 inhibitor project, dose response (AID 624133); format: functional
Orexin receptor type 2 [12] = target: T4, Orexin receptor type 2; experiment: Counterscreen assay for antagonists of the orexin 1 receptor (OX1R; HCRTR1): Homogeneous Time Resolved Fluorescence (HTRF)-based cell-based dose response assay for antagonists of the orexin 2 receptor (OX2R; HCRTR2), run by assay provider.; format: functional
Fatty acid synthase = Fatty acid synthase (Homo sapiens, UniProt P49327); experiment: inhibition of human FAS-TE enzyme activity – biochemical, kinetic fluorescence intensity, dose response (AID 624326); format: functional;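 also: rate of fluorescence rise from hydrolysis of a fluorogenic O-methyl fluorescein ester substrate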
Sequence of Fatty acid synthase (P49327 whole entry): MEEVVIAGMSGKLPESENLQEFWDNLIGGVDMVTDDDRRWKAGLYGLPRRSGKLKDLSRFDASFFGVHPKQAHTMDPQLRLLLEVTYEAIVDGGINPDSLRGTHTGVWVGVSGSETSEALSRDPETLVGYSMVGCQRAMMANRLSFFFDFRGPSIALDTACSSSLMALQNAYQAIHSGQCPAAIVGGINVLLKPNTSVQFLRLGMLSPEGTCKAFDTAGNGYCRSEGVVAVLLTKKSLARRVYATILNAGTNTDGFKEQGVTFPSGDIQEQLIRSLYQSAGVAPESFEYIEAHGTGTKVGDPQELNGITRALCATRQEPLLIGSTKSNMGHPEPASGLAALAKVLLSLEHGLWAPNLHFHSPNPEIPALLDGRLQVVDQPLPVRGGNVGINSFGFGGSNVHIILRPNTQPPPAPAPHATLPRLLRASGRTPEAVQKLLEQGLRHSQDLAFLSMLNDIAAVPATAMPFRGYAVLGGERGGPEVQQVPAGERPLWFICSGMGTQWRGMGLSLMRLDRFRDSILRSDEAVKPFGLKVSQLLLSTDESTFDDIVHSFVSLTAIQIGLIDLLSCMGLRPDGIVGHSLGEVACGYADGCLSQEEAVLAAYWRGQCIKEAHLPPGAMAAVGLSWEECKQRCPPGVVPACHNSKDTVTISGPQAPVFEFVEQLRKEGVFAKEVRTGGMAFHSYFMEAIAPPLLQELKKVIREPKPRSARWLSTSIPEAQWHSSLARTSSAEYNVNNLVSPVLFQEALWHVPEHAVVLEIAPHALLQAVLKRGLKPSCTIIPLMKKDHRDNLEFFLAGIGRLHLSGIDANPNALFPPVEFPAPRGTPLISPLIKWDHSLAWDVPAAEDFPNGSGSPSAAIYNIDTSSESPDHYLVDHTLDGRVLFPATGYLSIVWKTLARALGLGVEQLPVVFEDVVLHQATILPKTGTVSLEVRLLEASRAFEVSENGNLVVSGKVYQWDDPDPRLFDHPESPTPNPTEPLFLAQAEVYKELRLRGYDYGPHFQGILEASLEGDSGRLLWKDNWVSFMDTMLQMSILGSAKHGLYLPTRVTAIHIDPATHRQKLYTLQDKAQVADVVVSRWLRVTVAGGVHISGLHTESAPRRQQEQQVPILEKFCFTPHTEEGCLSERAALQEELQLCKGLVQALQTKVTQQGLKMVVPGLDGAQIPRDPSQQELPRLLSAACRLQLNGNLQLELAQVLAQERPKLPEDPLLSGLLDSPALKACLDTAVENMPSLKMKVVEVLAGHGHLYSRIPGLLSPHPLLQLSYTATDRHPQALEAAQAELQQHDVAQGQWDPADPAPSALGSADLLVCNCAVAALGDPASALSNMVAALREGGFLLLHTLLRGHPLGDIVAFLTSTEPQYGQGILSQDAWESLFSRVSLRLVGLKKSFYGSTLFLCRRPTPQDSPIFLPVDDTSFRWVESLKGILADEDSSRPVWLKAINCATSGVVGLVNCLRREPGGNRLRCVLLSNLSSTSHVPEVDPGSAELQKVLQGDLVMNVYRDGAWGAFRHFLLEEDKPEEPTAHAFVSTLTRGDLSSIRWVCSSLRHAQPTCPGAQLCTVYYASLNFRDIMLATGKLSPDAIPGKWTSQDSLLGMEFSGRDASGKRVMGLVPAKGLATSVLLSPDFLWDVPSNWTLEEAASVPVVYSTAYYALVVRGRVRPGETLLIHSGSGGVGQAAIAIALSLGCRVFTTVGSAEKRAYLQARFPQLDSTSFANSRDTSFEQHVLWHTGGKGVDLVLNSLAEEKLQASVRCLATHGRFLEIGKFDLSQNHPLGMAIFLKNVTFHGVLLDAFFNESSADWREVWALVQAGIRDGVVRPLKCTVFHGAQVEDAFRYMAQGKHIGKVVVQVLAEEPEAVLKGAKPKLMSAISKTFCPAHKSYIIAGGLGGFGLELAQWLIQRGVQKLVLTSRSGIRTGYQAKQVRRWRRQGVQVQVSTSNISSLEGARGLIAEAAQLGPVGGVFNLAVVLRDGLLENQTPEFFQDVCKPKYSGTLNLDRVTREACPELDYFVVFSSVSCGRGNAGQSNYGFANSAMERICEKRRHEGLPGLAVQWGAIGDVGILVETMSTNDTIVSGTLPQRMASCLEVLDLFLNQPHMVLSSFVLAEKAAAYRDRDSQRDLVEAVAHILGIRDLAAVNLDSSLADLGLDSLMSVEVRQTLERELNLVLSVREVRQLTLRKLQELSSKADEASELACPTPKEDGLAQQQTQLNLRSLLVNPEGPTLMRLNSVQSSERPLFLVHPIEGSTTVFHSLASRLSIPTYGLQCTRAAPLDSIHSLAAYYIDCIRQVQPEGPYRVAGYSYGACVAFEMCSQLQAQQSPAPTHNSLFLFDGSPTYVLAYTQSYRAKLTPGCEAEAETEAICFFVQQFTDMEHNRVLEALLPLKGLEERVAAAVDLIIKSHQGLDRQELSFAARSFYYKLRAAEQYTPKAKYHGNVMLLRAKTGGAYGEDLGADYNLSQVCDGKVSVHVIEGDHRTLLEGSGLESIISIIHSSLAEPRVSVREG

Tumor necrosis factor = Tumor necrosis factor (Homo sapiens, UniProt P01375); experiment: analog potency on TNFa NF-kB signaling – cell-based, revised, SAR follow-up (AID 2337); format: functional
Sequence of Tumor necrosis factor (P01375 whole entry, the tested form may be a part): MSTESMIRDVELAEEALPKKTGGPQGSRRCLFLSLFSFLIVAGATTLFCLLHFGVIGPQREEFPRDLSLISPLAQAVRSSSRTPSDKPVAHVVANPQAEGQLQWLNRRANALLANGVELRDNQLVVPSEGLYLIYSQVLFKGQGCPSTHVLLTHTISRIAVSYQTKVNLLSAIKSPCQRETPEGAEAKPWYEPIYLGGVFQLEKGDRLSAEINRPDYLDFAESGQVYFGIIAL

[13] = target: T5, Nucleotide-binding oligomerization domain-containing protein 1 (Homo sapiens, UniProt Q9Y239); experiment: blockers of NOD1 pathway activity – revised, SAR follow-up (AID 2333); format: functional
T5 sequence (Q9Y239 whole entry): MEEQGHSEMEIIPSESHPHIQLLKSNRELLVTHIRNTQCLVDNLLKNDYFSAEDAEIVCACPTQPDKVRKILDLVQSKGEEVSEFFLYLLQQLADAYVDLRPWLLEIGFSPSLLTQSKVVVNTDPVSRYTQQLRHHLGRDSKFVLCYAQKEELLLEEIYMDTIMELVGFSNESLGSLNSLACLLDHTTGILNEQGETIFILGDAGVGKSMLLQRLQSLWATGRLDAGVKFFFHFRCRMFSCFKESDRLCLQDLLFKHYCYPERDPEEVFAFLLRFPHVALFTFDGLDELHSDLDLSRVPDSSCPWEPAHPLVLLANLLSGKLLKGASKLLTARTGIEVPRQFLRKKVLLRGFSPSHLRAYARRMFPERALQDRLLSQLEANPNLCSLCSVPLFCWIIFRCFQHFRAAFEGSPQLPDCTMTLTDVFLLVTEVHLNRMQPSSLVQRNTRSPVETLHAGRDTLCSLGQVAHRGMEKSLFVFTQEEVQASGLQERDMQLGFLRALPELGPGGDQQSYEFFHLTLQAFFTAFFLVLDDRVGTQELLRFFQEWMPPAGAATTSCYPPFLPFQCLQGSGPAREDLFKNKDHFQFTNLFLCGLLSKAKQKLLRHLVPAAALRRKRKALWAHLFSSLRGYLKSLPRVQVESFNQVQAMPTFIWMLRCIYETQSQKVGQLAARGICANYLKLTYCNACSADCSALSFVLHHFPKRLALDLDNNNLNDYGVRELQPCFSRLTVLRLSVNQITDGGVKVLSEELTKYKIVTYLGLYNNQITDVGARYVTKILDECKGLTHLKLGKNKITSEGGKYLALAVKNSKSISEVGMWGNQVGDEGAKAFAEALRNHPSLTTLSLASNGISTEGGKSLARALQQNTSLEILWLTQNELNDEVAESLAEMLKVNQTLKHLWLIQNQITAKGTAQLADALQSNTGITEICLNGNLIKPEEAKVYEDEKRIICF

HEK293 = experiment: cells; conditions: Homo sapiens;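 also: cells exposed to compound for 14 hours overnight before viability readout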

Cc1cccc(CCNC(=O)CCS(=O)(=O)c2ccc(Br)cc2)c1
EC50 [1]: 22.3 µM (inactive)

COc1ccccc1C(=O)Nc1nc(-c2ccc(S(=O)(=O)N3CCOCC3)cc2)cs1
IC50 [2]: 3.81 µM (active) | IC50 (CHO-K1): > 66.2 µM (inactive) | IC50 (Jurkat): 7.79 µM (active) | IC50 [3]: > 16.6 µM (inactive) | IC50 [4]: > 80 µM (inactive) | IC50 [5]: 3.59 µM (active) | IC50 [6]: 17.5 µM (inactive) | AC50 [7]: 4.34 µM (active) | AC50 (INS1): 3.17 µM (active) | AC50 [8]: 1.21 µM (active) | AC50 [9]: 51.8 µM (active) | IC50 (Orexin receptor type 2 [10]): 8.4 µM (active) | AC50 [11]: 2.34 µM (active) | IC50 (Orexin receptor type 2 [12]): 5.93 µM (active) | IC50 (Fatty acid synthase): 10.9 µM (active)

COC(=O)CC1=NN(c2ccccc2)C(=O)/C1=C/Nc1ccc(C)cc1
IC50 (Tumor necrosis factor): > 20 µM (inactive) | IC50 [13]: > 20 µM (inactive) | IC50 (HEK293): > 20 µM (inactive)
